As usually defined, the inhibition is how much of the control response was suppressed.

*1 amine or outer side, *2 acyl side, *3 side chain or, on linkers, in order; H or OH if unused. Where a SMILES comes first, the peptide text is derived from it. The star is where a group is joined. X7 = O=C(OC[C@@H](COS(=O)(=O)O)OS(=O)(=O)O)*; X6 = O=C(OC[C@H](COS(=O)(=O)O)OS(=O)(=O)O)*; X12 = O=S(=O)(O)OC[C@H](CN*)OS(=O)(=O)O; X2 = O=S(=O)(O)OC[C@@H](CN*)OS(=O)(=O)O; NH(3-hydroxypropyl) = OCCCN*; X3 = O=C(OCCCOS(=O)(=O)O)*; X10 = O=C(OC[C@@H](O)CO)*; X11 = O=C(OC[C@H](O)CO)*; X9 = O=S(=O)(O)OCCCCN*; X5 = O=S(=O)(O)OCCCN*; CO = O=C([*:1])[*:2]; NH(CH2)4OH = OCCCCN*; X14 = OC[C@H](O)CN*; X4 = OC[C@@H](O)CN*; X13 = O=C(OCCCO)*

18 compounds from ChEMBL document CHEMBL3217585, “A rational design to create hybrid -sheet breaker peptides to inhibit aggregation and toxicity of amyloid-” (Medchemcomm, 2011) can be followed below.

For data set [1], the target named is Amyloid-beta precursor protein (Homo sapiens) (UniProt P05067). In words: Inhibition of amyloid beta (1 to 42) aggregation in HBP assessed as beta sheet formation at 1:20 protein to compound ratio after 48 hrs by Th-T fluorescence assay relative to control. Also on record: scale not given: the % may be the effect or the level left.
Data set [2] has the same target. In words: Inhibition of amyloid beta (1 to 42)-mediated cytotoxicity in HBP assessed as cell death at 1:5 protein to compound ratio after 6 days by fluorescence assay relative to control. Also on record: scale not given: the % may be the effect or the level left.
Data set [3] is described as follows: Cytotoxicity against HBP assessed as cell death at 50 uM after 6 days by fluorescence assay. As to conditions: human, 144 h.
Data set [4] has as its target Amyloid-beta precursor protein (Homo sapiens) (UniProt P05067). Nature of the data set: Inhibition of monomeric amyloid beta (unknown origin)-mediated cytotoxicity at 1:5 protein to compound ratio by cell-based assay relative to control. As to conditions: concentration not given here.
The target is the same in data set [5]. Nature of the data set: Inhibition of monomeric amyloid beta (unknown origin) aggregation at 1:20 protein to compound ratio relative to control. As to conditions: concentration not given here.

Chain of Amyloid-beta precursor protein (Homo sapiens) (P05067 whole entry): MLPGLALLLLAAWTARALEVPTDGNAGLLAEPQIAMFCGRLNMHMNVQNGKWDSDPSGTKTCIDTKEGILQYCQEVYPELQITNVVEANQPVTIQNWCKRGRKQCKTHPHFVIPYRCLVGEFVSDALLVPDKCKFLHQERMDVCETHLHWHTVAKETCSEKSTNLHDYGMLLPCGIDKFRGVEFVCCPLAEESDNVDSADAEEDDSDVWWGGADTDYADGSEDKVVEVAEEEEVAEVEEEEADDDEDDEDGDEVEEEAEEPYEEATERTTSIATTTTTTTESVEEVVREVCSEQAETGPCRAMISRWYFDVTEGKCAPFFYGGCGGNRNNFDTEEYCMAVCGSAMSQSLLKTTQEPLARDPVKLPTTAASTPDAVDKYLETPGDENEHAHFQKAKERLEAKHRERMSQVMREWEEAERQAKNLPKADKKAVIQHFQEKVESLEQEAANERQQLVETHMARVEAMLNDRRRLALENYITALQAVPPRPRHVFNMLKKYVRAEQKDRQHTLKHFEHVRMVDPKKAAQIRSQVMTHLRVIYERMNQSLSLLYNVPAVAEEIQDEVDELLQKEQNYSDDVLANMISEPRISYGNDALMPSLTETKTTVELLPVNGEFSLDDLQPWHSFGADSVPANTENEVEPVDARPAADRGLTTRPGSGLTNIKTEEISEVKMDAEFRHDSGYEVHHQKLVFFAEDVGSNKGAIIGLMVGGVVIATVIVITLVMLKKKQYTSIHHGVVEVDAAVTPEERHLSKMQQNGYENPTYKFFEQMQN

Consider `CC(C)C[C@H](NC(=O)NC[C@H](COS(=O)(=O)O)OS(=O)(=O)O)C(=O)N1CCC[C@H]1C(=O)N[C@@H](Cc1ccccc1)C(=O)N[C@@H](Cc1ccccc1)C(=O)N[C@@H](CC(=O)O)C(N)=O` ({X2-CO}-LPFFD-NH2), for which the values for the Activity in data set [1] and in data set [2] were 120% and 92%, respectively.
As to `CC(C)C[C@H](NC(=O)NCCCO)C(=O)N1CCC[C@H]1C(=O)N[C@@H](Cc1ccccc1)C(=O)N[C@@H](Cc1ccccc1)C(=O)N[C@@H](CC(=O)O)C(N)=O` ({NH(3-hydroxypropyl)-CO}-LPFFD-NH2), the Activity in data set [1] came to 82.7%; in data set [2], 96.1%.
For `CC(C)C[C@H](NC(=O)NCCCCOS(=O)(=O)O)C(=O)N1CCC[C@H]1C(=O)N[C@@H](Cc1ccccc1)C(=O)N[C@@H](Cc1ccccc1)C(=O)N[C@@H](CC(=O)O)C(N)=O` ({X9-CO}-LPFFD-NH2) the same measures were 100% and 96.5%.
As for `CC(C)C[C@H](NC(=O)NC[C@@H](O)CO)C(=O)N1CCC[C@H]1C(=O)N[C@@H](Cc1ccccc1)C(=O)N[C@@H](Cc1ccccc1)C(=O)N[C@@H](CC(=O)O)C(N)=O` ({X14-CO}-LPFFD-NH2), the values for the Activity in data set [1] and in data set [2] were 98.7% and 96.6%, respectively.
Turning to `CC(C)C[C@H](NC(=O)OCC(CO)CO)C(=O)N1CCC[C@@H]1C(=O)N[C@@H](Cc1ccccc1)C(=O)N[C@@H](Cc1ccccc1)C(=O)N[C@@H](CC(=O)O)C(=O)O`, the Activity in data set [1] amounted to 87.9%; in data set [2] it was 94.8%.
For `CC(C)C[C@H](NC(=O)OCC(CO)CO)C(=O)N1CCC[C@H]1C(=O)N[C@@H](Cc1ccccc1)C(=O)N[C@@H](Cc1ccccc1)C(=O)N[C@@H](CC(=O)O)C(=O)O`, the Activity was 76.4% in data set [1], “Non-toxic” in data set [3] and 81.1% in data set [2].
Turning to `CC(C)C[C@H](NC(=O)OC[C@H](COS(=O)(=O)O)OS(=O)(=O)O)C(=O)N1CCC[C@H]1C(=O)N[C@@H](Cc1ccccc1)C(=O)N[C@@H](Cc1ccccc1)C(=O)N[C@@H](CC(=O)O)C(N)=O` (X6-LPFFD-NH2), the Activity in data set [1] is 95.1%; in data set [2], 91.4%.
As to `CC(C)C[C@H](NC(=O)OCC(COS(=O)(=O)O)CS(=O)(=O)O)C(=O)N1CCC[C@@H]1C(=O)N[C@@H](Cc1ccccc1)C(=O)N[C@@H](Cc1ccccc1)C(=O)N[C@@H](CC(=O)O)C(=O)O` (some centres undefined), the Activity in data set [1] worked out at 94.7%; in data set [2], 93.8%.
As for `CC(C)C[C@H](NC(=O)OC[C@@H](COS(=O)(=O)O)OS(=O)(=O)O)C(=O)N1CCC[C@H]1C(=O)N[C@@H](Cc1ccccc1)C(=O)N[C@@H](Cc1ccccc1)C(=O)N[C@@H](CC(=O)O)C(N)=O` (X7-LPFFD-NH2), the Activity is 96.3% in data set [1] and 95.9% in data set [2].
For the compound `CC(C)C[C@H](NC(=O)NCCCOS(=O)(=O)O)C(=O)N1CCC[C@H]1C(=O)N[C@@H](Cc1ccccc1)C(=O)N[C@@H](Cc1ccccc1)C(=O)N[C@@H](CC(=O)O)C(N)=O` ({X5-CO}-LPFFD-NH2), the Activity in data set [1] is 83%; in data set [2] it was 95.9%.
Taken in the same sequence, the figures for `CC(C)C[C@H](NC(=O)OC[C@H](O)CO)C(=O)N1CCC[C@H]1C(=O)N[C@@H](Cc1ccccc1)C(=O)N[C@@H](Cc1ccccc1)C(=O)N[C@@H](CC(=O)O)C(N)=O` (X11-LPFFD-NH2) were 100% and 91.6%.
With `CC(C)C[C@H](NC(=O)OC[C@@H](O)CO)C(=O)N1CCC[C@H]1C(=O)N[C@@H](Cc1ccccc1)C(=O)N[C@@H](Cc1ccccc1)C(=O)N[C@@H](CC(=O)O)C(N)=O` (X10-LPFFD-NH2), the values for the Activity in data set [1] and in data set [2] were 97% and 89.7%, respectively.
In the case of `CC(C)C[C@H](NC(=O)NC[C@H](O)CO)C(=O)N1CCC[C@H]1C(=O)N[C@@H](Cc1ccccc1)C(=O)N[C@@H](Cc1ccccc1)C(=O)N[C@@H](CC(=O)O)C(N)=O` ({X4-CO}-LPFFD-NH2), the Activity in data set [1] was 98.7%; in data set [2], 92.5%.
As to `CC(C)C[C@H](NC(=O)OCCCO)C(=O)N1CCC[C@H]1C(=O)N[C@@H](Cc1ccccc1)C(=O)N[C@@H](Cc1ccccc1)C(=O)N[C@@H](CC(=O)O)C(N)=O` (X13-LPFFD-NH2), the Activity turned out to be 92.9% in data set [1] and 93% in data set [2].
For `CC(C)C[C@H](NC(=O)NCCCCO)C(=O)N1CCC[C@H]1C(=O)N[C@@H](Cc1ccccc1)C(=O)N[C@@H](Cc1ccccc1)C(=O)N[C@@H](CC(=O)O)C(N)=O` ({NH(CH2)4OH-CO}-LPFFD-NH2), the Activity came to 100% in data set [1] and 99.6% in data set [2].
As for Ac-LPFFD-NH2, the inhibition in data set [4] and in data set [5] was 50% each time. In addition, the Activity amounted to 51.9% in data set [1] and 51.8% in data set [2].
As to `CC(C)C[C@H](NC(=O)NC[C@@H](COS(=O)(=O)O)OS(=O)(=O)O)C(=O)N1CCC[C@H]1C(=O)N[C@@H](Cc1ccccc1)C(=O)N[C@@H](Cc1ccccc1)C(=O)N[C@@H](CC(=O)O)C(N)=O` ({X12-CO}-LPFFD-NH2), the Activity in data set [1] came out at 127%; in data set [2], 92%.
Consider `CC(C)C[C@H](NC(=O)OCCCOS(=O)(=O)O)C(=O)N1CCC[C@H]1C(=O)N[C@@H](Cc1ccccc1)C(=O)N[C@@H](Cc1ccccc1)C(=O)N[C@@H](CC(=O)O)C(N)=O` (X3-LPFFD-NH2), for which the Activity in data set [1] and in data set [2] was 107% each time.
